Results taken from patent US5998488A, “Ophthalmic composition” (Lion Corporation, priority 1994, dated 1999).

Legend:
[1] = tested on: E. coli, P. aeru, S. aureus, A. nigar, Candida; assay: Antimicrobial test (preservative effectiveness test, USP), microorganism type not specified; type: cell-based; details: for Enhancement of antimicrobial activity (in words): solutions containing benzalkonium chloride, α-cyclodextrin, and EDTA-2Na, alone or in admixture
Protocol: Using bacteria Escherichia coli (E. coli), Pseudomonas aeruginosa (P. aeru), and Stapyrococcus aureus (S. aureus) and fungi Aspergillus nigar (A. nigar) and Candida albicans (Candida) as infectious microorganisms, a preservative effectiveness test was carried out according to the Pharmacopoeia of the United States.
++: microorganisms died within 5 days
+: microorganisms died in 6-10 days
-:microorganisms died in 11-15 days or over 15 days
Solutions were prepared in accordance with the formulation shown in Experiment 1 in a conventional manner as used in the preparation of eye drops while the amount of disodium ethylenediaminetetraacetate (EDTA-2Na) blended was in the range of 0.002 to 0.3%. The solutions were subject to the antimicrobial test of Experiment 3 and evaluated for antimicrobial activity according to the same criterion as above.
Solutions of the following formulation were prepared in a conventional manner as used in the preparation of eye drops.
The solutions were subject to the antimicrobial test of Experiment 3 and evaluated for antimicrobial activity according to the same criterion as above.
Solutions of the formulation shown in Table 7 were prepared to a total amount of 1,000 g in a conventional manner as used in the preparation of eye drops. […] The ophthalmic solutions were subject to the same tests as in Experiments 1 and 3. In the test of Experiment 3, the ophthalmic solutions were evaluated for antimicrobial activity according to the same criterion as before.

[2] = Benzalkonium chloride adsorption test (soft contact lenses, lens not given); type: physicochemical; details: α-cyclodextrin replaced by the other cyclodextrin
Protocol: (§1) The percent inhibition of benzalkonium chloride adsorption to commercially available soft contact lenses was determined by the following test.
(§2) Benzalkonium chloride adsorption test A 30-ml vial was charged with 10 ml of the solution and a soft contact lens was immersed therein. In a constant temperature tank at 25° C., the vial was shaken for 24 hours. After the contact lens was removed from the vial, the concentration of benzalkonium chloride in the solution was quantitatively determined by high performance liquid chromatography. A percent inhibition of adsorption was calculated according to the following formula.
(§3) As a control, the above procedure was repeated except that no contact lens was immersed.
(§4) Inhibition of adsorption (%)=(concentration of benzalkonium chloride in sample solution)/(concentration of benzalkonium chloride in control solution)×100
Solutions of the formulation shown in Table 7 were prepared to a total amount of 1,000 g in a conventional manner as used in the preparation of eye drops. Ophthalmic solutions of Examples 2 to 13 were obtained. The ophthalmic solutions were subject to the same tests as in Experiments 1 and 3. In the test of Experiment 3, the ophthalmic solutions were evaluated for antimicrobial activity according to the same criterion as before.

[3] = Benzalkonium chloride adsorption test (soft contact lens Seequence); type: physicochemical; details: α-cyclodextrin 0%; benzalkonium chloride 0.01%; 25° C., 24 hours
Protocol: (§5) A test was conducted to examine the inhibition of benzalkonium chloride adsorption to soft contact lenses. Solutions of the following formulation were prepared in a conventional manner as used in the preparation of eye drops.
as §1, §2, §3, §4
(§6) Note that Seequence, Nichicon Soft and Menicon Soft are trademarks of soft contact lenses commercially available from Bausch & Lomb, Nihon Contact K.K., and Menicon K.K., respectively.

[4] = Benzalkonium chloride adsorption test (soft contact lens Nichicon Soft μ); type: physicochemical; details: α-cyclodextrin 0%; benzalkonium chloride 0.01%; 25° C., 24 hours
Protocol: as §5, §1, §2, §3, §4, §6

[5] = Benzalkonium chloride adsorption test (soft contact lens Menicon Soft 72); type: physicochemical; details: α-cyclodextrin 0%; benzalkonium chloride 0.01%; 25° C., 24 hours
Protocol: as §5, §1, §2, §3, §4, §6

O=BOB(O)OB(O)OB=O [Borax]
Antimicrobial activity ([1]; boric acid 0%, borax 0.01%, about pH 7.2): + (microorganisms died in 6-10 days)
Antimicrobial activity ([1]; boric acid 0%, borax 0.02%, about pH 7.2): + (microorganisms died in 6-10 days)
Antimicrobial activity ([1]; boric acid 0%, borax 0.04%, about pH 7.2): + (microorganisms died in 6-10 days)
Antimicrobial activity ([1]; boric acid 0%, borax 0.06%, about pH 7.2): + (microorganisms died in 6-10 days)
Antimicrobial activity ([1]; boric acid 0%, borax 0.08%, about pH 7.2): + (microorganisms died in 6-10 days)
Antimicrobial activity ([1]; boric acid 0%, borax 0.1%, about pH 7.2): + (microorganisms died in 6-10 days)
Antimicrobial activity ([1]; boric acid 0%, borax 0.15%, about pH 7.2): ++ (microorganisms died within 5 days)
Enhancement of antimicrobial activity (in words) [1]: effective for enhancing the antimicrobial activity

OB(O)O [Boric acid]
Antimicrobial activity ([1]; boric acid 0.05%, borax 0%, about pH 7.2): + (microorganisms died in 6-10 days)
Antimicrobial activity ([1]; boric acid 0.1%, borax 0%, about pH 7.2): ++ (microorganisms died within 5 days)
Antimicrobial activity ([1]; boric acid 0.2%, borax 0%, about pH 7.2): ++ (microorganisms died within 5 days)
Antimicrobial activity ([1]; boric acid 0.4%, borax 0%, about pH 7.2): ++ (microorganisms died within 5 days)
Antimicrobial activity ([1]; boric acid 0.6%, borax 0%, about pH 7.2): ++ (microorganisms died within 5 days)
Antimicrobial activity ([1]; boric acid 0.8%, borax 0%, about pH 7.2): ++ (microorganisms died within 5 days)
Antimicrobial activity ([1]; boric acid 1.0%, borax 0%, about pH 7.2): ++ (microorganisms died within 5 days)
Enhancement of antimicrobial activity (in words) [1]: effective for enhancing the antimicrobial activity

O=C([O-])CN(CCN(CC(=O)O)CC(=O)O)CC(=O)[O-].[Na+].[Na+] [EDTA-2Na, disodium ethylenediaminetetraacetate]
Effect on lowering of antimicrobial activity by α-cyclodextrin (in words) ([1]; 0.01 to 1.0% of α-cyclodextrin, remarkable at EDTA-2Na at least 0.006%): prevents a lowering of antimicrobial activity
Antimicrobial activity ([1]; EDTA-2Na 0.002%, α-cyclodextrin 0.01%): + (microorganisms died in 6-10 days)
Antimicrobial activity ([1]; EDTA-2Na 0.002%, α-cyclodextrin 0.03%): - (microorganisms died in 11-15 days or over 15 days)
Antimicrobial activity ([1]; EDTA-2Na 0.002%, α-cyclodextrin 0.05%): - (microorganisms died in 11-15 days or over 15 days)
Antimicrobial activity ([1]; EDTA-2Na 0.002%, α-cyclodextrin 0.1%): - (microorganisms died in 11-15 days or over 15 days)
Antimicrobial activity ([1]; EDTA-2Na 0.002%, α-cyclodextrin 0.3%): - (microorganisms died in 11-15 days or over 15 days)
Antimicrobial activity ([1]; EDTA-2Na 0.002%, α-cyclodextrin 0.5%): - (microorganisms died in 11-15 days or over 15 days)
Antimicrobial activity ([1]; EDTA-2Na 0.002%, α-cyclodextrin 1.0%): - (microorganisms died in 11-15 days or over 15 days)
Antimicrobial activity ([1]; EDTA-2Na 0.004%, α-cyclodextrin 0.01%): + (microorganisms died in 6-10 days)
Antimicrobial activity ([1]; EDTA-2Na 0.004%, α-cyclodextrin 0.03%): - (microorganisms died in 11-15 days or over 15 days)
Antimicrobial activity ([1]; EDTA-2Na 0.004%, α-cyclodextrin 0.05%): - (microorganisms died in 11-15 days or over 15 days)
Antimicrobial activity ([1]; EDTA-2Na 0.004%, α-cyclodextrin 0.1%): - (microorganisms died in 11-15 days or over 15 days)
Antimicrobial activity ([1]; EDTA-2Na 0.004%, α-cyclodextrin 0.3%): - (microorganisms died in 11-15 days or over 15 days)
Antimicrobial activity ([1]; EDTA-2Na 0.004%, α-cyclodextrin 0.5%): - (microorganisms died in 11-15 days or over 15 days)
Antimicrobial activity ([1]; EDTA-2Na 0.004%, α-cyclodextrin 1.0%): - (microorganisms died in 11-15 days or over 15 days)
Antimicrobial activity ([1]; EDTA-2Na 0.006%, α-cyclodextrin 0.01%): + (microorganisms died in 6-10 days)
Antimicrobial activity ([1]; EDTA-2Na 0.006%, α-cyclodextrin 0.03%): + (microorganisms died in 6-10 days)
Antimicrobial activity ([1]; EDTA-2Na 0.006%, α-cyclodextrin 0.05%): + (microorganisms died in 6-10 days)
Antimicrobial activity ([1]; EDTA-2Na 0.006%, α-cyclodextrin 0.1%): + (microorganisms died in 6-10 days)
Antimicrobial activity ([1]; EDTA-2Na 0.006%, α-cyclodextrin 0.3%): + (microorganisms died in 6-10 days)
Antimicrobial activity ([1]; EDTA-2Na 0.006%, α-cyclodextrin 0.5%): + (microorganisms died in 6-10 days)
Antimicrobial activity ([1]; EDTA-2Na 0.006%, α-cyclodextrin 1.0%): + (microorganisms died in 6-10 days)
Antimicrobial activity ([1]; EDTA-2Na 0.01%, α-cyclodextrin 0.01%): + (microorganisms died in 6-10 days)
Antimicrobial activity ([1]; EDTA-2Na 0.01%, α-cyclodextrin 0.03%): + (microorganisms died in 6-10 days)
Antimicrobial activity ([1]; EDTA-2Na 0.01%, α-cyclodextrin 0.05%): + (microorganisms died in 6-10 days)
Antimicrobial activity ([1]; EDTA-2Na 0.01%, α-cyclodextrin 0.1%): + (microorganisms died in 6-10 days)
Antimicrobial activity ([1]; EDTA-2Na 0.01%, α-cyclodextrin 0.3%): + (microorganisms died in 6-10 days)
Antimicrobial activity ([1]; EDTA-2Na 0.01%, α-cyclodextrin 0.5%): + (microorganisms died in 6-10 days)
Antimicrobial activity ([1]; EDTA-2Na 0.01%, α-cyclodextrin 1.0%): + (microorganisms died in 6-10 days)
Antimicrobial activity ([1]; EDTA-2Na 0.05%, α-cyclodextrin 0.01%): + (microorganisms died in 6-10 days)
Antimicrobial activity ([1]; EDTA-2Na 0.05%, α-cyclodextrin 0.03%): + (microorganisms died in 6-10 days)
Antimicrobial activity ([1]; EDTA-2Na 0.05%, α-cyclodextrin 0.05%): + (microorganisms died in 6-10 days)
Antimicrobial activity ([1]; EDTA-2Na 0.05%, α-cyclodextrin 0.1%): + (microorganisms died in 6-10 days)
Antimicrobial activity ([1]; EDTA-2Na 0.05%, α-cyclodextrin 0.3%): + (microorganisms died in 6-10 days)
Antimicrobial activity ([1]; EDTA-2Na 0.05%, α-cyclodextrin 0.5%): + (microorganisms died in 6-10 days)
Antimicrobial activity ([1]; EDTA-2Na 0.05%, α-cyclodextrin 1.0%): + (microorganisms died in 6-10 days)
Antimicrobial activity ([1]; EDTA-2Na 0.1%, α-cyclodextrin 0.01%): + (microorganisms died in 6-10 days)
Antimicrobial activity ([1]; EDTA-2Na 0.1%, α-cyclodextrin 0.03%): + (microorganisms died in 6-10 days)
Antimicrobial activity ([1]; EDTA-2Na 0.1%, α-cyclodextrin 0.05%): + (microorganisms died in 6-10 days)
Antimicrobial activity ([1]; EDTA-2Na 0.1%, α-cyclodextrin 0.1%): + (microorganisms died in 6-10 days)
Antimicrobial activity ([1]; EDTA-2Na 0.1%, α-cyclodextrin 0.3%): + (microorganisms died in 6-10 days)
Antimicrobial activity ([1]; EDTA-2Na 0.1%, α-cyclodextrin 0.5%): + (microorganisms died in 6-10 days)
Antimicrobial activity ([1]; EDTA-2Na 0.1%, α-cyclodextrin 1.0%): + (microorganisms died in 6-10 days)
Antimicrobial activity ([1]; EDTA-2Na 0.3%, α-cyclodextrin 0.01%): + (microorganisms died in 6-10 days)
Antimicrobial activity ([1]; EDTA-2Na 0.3%, α-cyclodextrin 0.03%): + (microorganisms died in 6-10 days)
Antimicrobial activity ([1]; EDTA-2Na 0.3%, α-cyclodextrin 0.05%): + (microorganisms died in 6-10 days)
Antimicrobial activity ([1]; EDTA-2Na 0.3%, α-cyclodextrin 0.1%): + (microorganisms died in 6-10 days)
Antimicrobial activity ([1]; EDTA-2Na 0.3%, α-cyclodextrin 0.3%): + (microorganisms died in 6-10 days)
Antimicrobial activity ([1]; EDTA-2Na 0.3%, α-cyclodextrin 0.5%): + (microorganisms died in 6-10 days)
Antimicrobial activity ([1]; EDTA-2Na 0.3%, α-cyclodextrin 1.0%): + (microorganisms died in 6-10 days)

OC[C@H]1O[C@@H]2O[C@H]3[C@H](O)[C@@H](O)[C@@H](O[C@H]4[C@H](O)[C@@H](O)[C@@H](O[C@H]5[C@H](O)[C@@H](O)[C@@H](O[C@H]6[C@H](O)[C@@H](O)[C@@H](O[C@H]7[C@H](O)[C@@H](O)[C@@H](O[C@H]8[C@H](O)[C@@H](O)[C@@H](O[C@H]1[C@H](O)[C@H]2O)O[C@@H]8CO)O[C@@H]7CO)O[C@@H]6CO)O[C@@H]5CO)O[C@@H]4CO)O[C@@H]3CO [β-cyclodextrin]
Inhibition of adsorption, cyclodextrin in place of α-cyclodextrin (in words) [2]: Approximately equivalent results

benzalkonium chloride [reference compound]
Inhibition of adsorption [3]: 65%
Inhibition of adsorption [4]: 60%
Inhibition of adsorption [5]: 65%
Antimicrobial activity ([1]; boric acid 0%, borax 0%, EDTA-2Na 0.006%, α-cyclodextrin 0.03%, about pH 7.2): + (microorganisms died in 6-10 days)
